Drawing on patent publication US9255090B2, “Heterocyclyl derivatives and their use as prostaglandin D2 receptor modulators” (Actelion Pharmaceuticals Ltd., priority 2012, dated 2016), this text covers IC50 for 29 molecules.

The target in one assay is hCRTH2 receptor (Homo sapiens (Human), UniProt Q9Y5Y4). Kind of assay: hCRTH2 receptor membranes radioligand (3H-PGD2) displacement assay. In kind it is binding. The conditions noted are these: 3H-PGD2 radioligand displacement, HEK293-hCRTH2 membranes. In outline: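 Compound was first mixed with buffer, then 3H-PGD2 was added at 2.5 nM, and the reaction was started with hCRTH2 membranes from HEK293 cells at 20 μg/well. After 90 min at room temperature, mixtures were filtered and washed with ice-cold buffer, and retained radioactivity was counted.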
hCRTH2 receptor, sequence (Q9Y5Y4 whole entry): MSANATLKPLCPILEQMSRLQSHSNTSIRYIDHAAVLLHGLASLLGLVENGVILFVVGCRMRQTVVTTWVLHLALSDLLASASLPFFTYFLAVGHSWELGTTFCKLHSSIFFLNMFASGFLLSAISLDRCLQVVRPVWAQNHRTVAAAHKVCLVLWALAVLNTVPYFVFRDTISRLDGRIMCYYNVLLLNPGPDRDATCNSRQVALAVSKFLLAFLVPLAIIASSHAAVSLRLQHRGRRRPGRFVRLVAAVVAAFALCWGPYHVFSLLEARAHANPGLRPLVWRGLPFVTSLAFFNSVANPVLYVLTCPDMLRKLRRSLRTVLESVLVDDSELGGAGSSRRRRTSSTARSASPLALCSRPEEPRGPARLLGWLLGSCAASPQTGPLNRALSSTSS

The next assay concerns eosinophils. The assay is described as follows: Eosinophil shape change assay with human plasma. Conditions: Homo sapiens, Eosinophil, human plasma (50%), PGD2 100 nM activation, antagonistic activity. Format: cell-based. In outline:
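Human polymorphonuclear cells stained with anti-CD49d-APC, combined with compound-preincubated human plasma (50% of final volume, 4×10^6 cells/ml) for 10 min at 37° C., then stimulated 5 min with 100 nM PGD2 and fixed. Flow cytometry scored percent eosinophils with increased forward scatter.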

With `COc1ccc(CC(=O)O)cc1-c1ccc(F)c2c1CCN(C(=O)[C@@H]1C[C@H]1c1ccccc1)CC2` (racemic) [Example 36, (±)-{3-[9-Fluoro-3-(trans-2-phenyl-cyclopropanecarbonyl)-2,3,4,5-tetrahydro-1H-benzo[d]azepin-6-yl]-4-methoxy-phenyl}-acetic acid], the IC50 at hCRTH2 receptor was 19.9 nM; in the assay on eosinophils it was over 1000 nM.

For `CCOc1ccc(CC(=O)O)cc1-c1ccc(F)c2c1CN(C(=O)OCc1ccccn1)CC2` [Example 394, 8-(5-Carboxymethyl-2-ethoxy-phenyl)-5-fluoro-3,4-dihydro-1H-isoquinoline-2-carboxylic acid pyridin-2-ylmethyl ester], the results for the IC50 on hCRTH2 receptor and in the assay on eosinophils were 1.2 nM and 12 nM, respectively.

Consider `COc1ccc(CC(=O)O)cc1-c1ccc(F)c2c1CN(C(=O)CCc1c(C)[nH]c3ccccc13)CC2` [Example 61, (3-{5-Fluoro-2-[3-(2-methyl-1H-indol-3-yl)-propionyl]-1,2,3,4-tetrahydro-isoquinolin-8-yl}-4-methoxy-phenyl)-acetic acid], for which the concentration for half-maximal inhibition (IC50) at hCRTH2 receptor was 8 nM; in the assay with eosinophils it was 52 nM.

Regarding `CCOc1ccc(CC(=O)O)cc1-c1ccc(F)c2c1CN(C(=O)OCc1ccc(F)cc1)CC2` [Example 398, 8-(5-Carboxymethyl-2-ethoxy-phenyl)-5-fluoro-3,4-dihydro-1H-isoquinoline-2-carboxylic acid 4-fluoro-benzyl ester], the half-inhibitory concentration (IC50) on hCRTH2 receptor came to 3.4 nM; in the assay on eosinophils, 13 nM.

As to `CCOc1cc(CC(=O)O)ccc1-c1ccc(F)c2c1CN(C(=O)C[C@@H](C)c1ccccc1)CC2` [Example 234, {3-Ethoxy-4-[5-fluoro-2-((R)-3-phenyl-butyryl)-1,2,3,4-tetrahydro-isoquinolin-8-yl]-phenyl}-acetic acid], the IC50 at hCRTH2 receptor was determined as 0.9 nM; in the assay with eosinophils, 47 nM.

Regarding `COc1cc(CC(=O)O)ccc1-c1ccc(F)c2c1CN(C(=O)CCc1ccccc1C)CC2` [Example 194, {4-[5-Fluoro-2-(3-o-tolyl-propionyl)-1,2,3,4-tetrahydro-isoquinolin-8-yl]-3-methoxy-phenyl}-acetic acid], the IC50 is 0.75 nM at hCRTH2 receptor and 188 nM in the assay with eosinophils.

`CCOc1ccc(CC(=O)O)cc1-c1ccc(F)c2c1CN(C(=O)CCc1cccc(C)n1)CC2` [Example 329, (4-Ethoxy-3-{5-fluoro-2-[3-(6-methyl-pyridin-2-yl)-propionyl]-1,2,3,4-tetrahydro-isoquinolin-8-yl}-phenyl)-acetic acid]: the results for the IC50 at hCRTH2 receptor and with eosinophils were 4.2 nM and 21 nM, respectively.

For the molecule `O=C(O)Cc1ccc(Cl)c(-c2ccc(F)c3c2CN(C(=O)[C@@H]2C[C@H]2c2ccccc2)CC3)c1` [Example 28, {4-Chloro-3-[5-fluoro-2-((1R,2R)-2-phenyl-cyclopropanecarbonyl)-1,2,3,4-tetrahydro-isoquinolin-8-yl]-phenyl}-acetic acid], the IC50 at hCRTH2 receptor was determined as 10 nM; in the assay with eosinophils it was 42 nM.

Take `COc1ccc(CC(=O)O)cc1-c1ccc(F)c2c1CN(C(=O)CCCc1ccccc1F)CC2` [Example 45, (3-{5-Fluoro-2-[4-(2-fluoro-phenyl)-butyryl]-1,2,3,4-tetrahydro-isoquinolin-8-yl}-4-methoxy-phenyl)-acetic acid]: the IC50 worked out at 2.9 nM at hCRTH2 receptor and 64 nM in the assay with eosinophils.

For the molecule `CCOc1ccc(CC(=O)O)cc1-c1ccc(F)c2c1CN(C(=O)CC1(c3ccccc3)CC1)CC2` [Example 222, (4-Ethoxy-3-{5-fluoro-2-[2-(1-phenyl-cyclopropyl)-acetyl]-1,2,3,4-tetrahydro-isoquinolin-8-yl}-phenyl)-acetic acid], the values for the half-inhibitory concentration (IC50) at hCRTH2 receptor and in the assay with eosinophils were 26.4 nM and 21 nM, respectively.

Consider `CCOc1cc(CC(=O)O)ccc1-c1ccc(F)c2c1CN(C(=O)CC(C)(C)c1ccc(F)cc1)CC2` [Example 237, (3-Ethoxy-4-{5-fluoro-2-[3-(4-fluoro-phenyl)-3-methyl-butyryl]-1,2,3,4-tetrahydro-isoquinolin-8-yl}-phenyl)-acetic acid], for which the IC50 is 0.3 nM at hCRTH2 receptor and 9 nM in the assay with eosinophils.

With `COc1cc(CC(=O)O)ccc1-c1ccc(F)c2c1CN(C(=O)OCc1ccccc1)CC2` [Example 166, 8-(4-Carboxymethyl-2-methoxy-phenyl)-5-fluoro-3,4-dihydro-1H-isoquinoline-2-carboxylic acid benzyl ester], the IC50 stood at 4.5 nM at hCRTH2 receptor and 117 nM with eosinophils.

With `COc1cc(CC(=O)O)ccc1-c1ccc(F)c2c1CN(C(=O)CC1CCc3ccccc31)CC2` (racemic) [Example 360], the half-inhibitory concentration (IC50) is 6.1 nM on hCRTH2 receptor and 30 nM with eosinophils.

Regarding `COc1cc(CC(=O)O)ccc1-c1ccc(F)c2c1CN(C(=O)CCCc1ccccc1)CC2` [Example 187, {4-[5-Fluoro-2-(4-phenyl-butyryl)-1,2,3,4-tetrahydro-isoquinolin-8-yl]-3-methoxy-phenyl}-acetic acid], the figures for the concentration for half-maximal inhibition (IC50) at hCRTH2 receptor and with eosinophils were 0.89 nM and 91 nM, respectively.

For `CCCOc1ccc(CC(=O)O)cc1-c1ccc(F)c2c1CN(C(=O)OCc1ccccc1)CC2` [Example 197, 8-(5-Carboxymethyl-2-propoxy-phenyl)-5-fluoro-3,4-dihydro-1H-isoquinoline-2-carboxylic acid benzyl ester], the figures for the IC50 on hCRTH2 receptor and with eosinophils were 0.28 nM and 24 nM, respectively.

With `O=C(O)Cc1ccc(OCC(F)(F)F)c(-c2ccc(F)c3c2CN(C(=O)OCc2ccccc2)CC3)c1` [Example 421, 8-[5-Carboxymethyl-2-(2,2,2-trifluoro-ethoxy)-phenyl]-5-fluoro-3,4-dihydro-1H-isoquinoline-2-carboxylic acid benzyl ester], the values for the IC50 on hCRTH2 receptor and in the assay with eosinophils were 3.8 nM and 16 nM, respectively.

For `CCOc1ccc(CC(=O)O)cc1-c1ccc(F)c2c1CN(C(=O)OCC(C)C)CC2` [Example 377, 8-(5-Carboxymethyl-2-ethoxy-phenyl)-5-fluoro-3,4-dihydro-1H-isoquinoline-2-carboxylic acid isobutyl ester], the IC50 at hCRTH2 receptor stood at 3.4 nM; in the assay on eosinophils, 123 nM.

With `CCOc1ccc(CC(=O)O)cc1-c1ccc(F)c2c1CN(C(=O)C(C)Cc1ccccc1)CC2` (stereo not shown) [Example 214], the values for the half-inhibitory concentration (IC50) on hCRTH2 receptor and in the assay on eosinophils were 3.1 nM and 11 nM, respectively.

Take `CS(=O)(=O)c1ccc(CC(=O)O)cc1-c1ccc(F)c2c1CN(C(=O)[C@@H]1C[C@H]1c1ccccc1)CC2` [Example 29, {3-[5-Fluoro-2-((1R,2R)-2-phenyl-cyclopropanecarbonyl)-1,2,3,4-tetrahydro-isoquinolin-8-yl]-4-methanesulfonyl-phenyl}-acetic acid]: the IC50 came out at 6.6 nM on hCRTH2 receptor and 20 nM in the assay on eosinophils.

With `COc1ccc(CC(=O)O)cc1-c1cc(F)c(F)c2c1CN(C(=O)OCc1ccccc1)CC2` [Example 31, 8-(5-Carboxymethyl-2-methoxy-phenyl)-5,6-difluoro-3,4-dihydro-1H-isoquinoline-2-carboxylic acid benzyl ester], the concentration for half-maximal inhibition (IC50) on hCRTH2 receptor is 12 nM; in the assay with eosinophils it was 436 nM.

Regarding `CC(C)Oc1ccc(CC(=O)O)cc1-c1ccc(F)c2c1CN(C(=O)OCc1ccccc1)CC2` [Example 22, 8-(5-Carboxymethyl-2-isopropoxy-phenyl)-5-fluoro-3,4-dihydro-1H-isoquinoline-2-carboxylic acid benzyl ester], the figures for the IC50 on hCRTH2 receptor and with eosinophils were 4.72 nM and 38 nM, respectively.

For the molecule `O=C(O)Cc1ccc(OC(F)F)c(-c2ccc(F)c3c2CN(C(=O)OCc2ccccc2)CC3)c1` [Example 412, 8-(5-Carboxymethyl-2-difluoromethoxy-phenyl)-5-fluoro-3,4-dihydro-1H-isoquinoline-2-carboxylic acid benzyl ester], the IC50 turned out to be 1.8 nM at hCRTH2 receptor and 47 nM in the assay with eosinophils.

With `O=C(O)Cc1ccc(OCCF)c(-c2ccc(F)c3c2CN(C(=O)OCc2ccccc2)CC3)c1` [Example 422, 8-[5-Carboxymethyl-2-(2-fluoro-ethoxy)-phenyl]-5-fluoro-3,4-dihydro-1H-isoquinoline-2-carboxylic acid benzyl ester], the half-maximal inhibitory concentration (IC50) on hCRTH2 receptor came out at 8.5 nM; in the assay on eosinophils, 8 nM.

As to `CCOc1ccc(CC(=O)O)cc1-c1ccc(F)c2c1CN(C(=O)[C@@H]1C[C@H]1c1ccccn1)CC2` (racemic) [Example 330], the values for the IC50 on hCRTH2 receptor and in the assay with eosinophils were 0.6 nM and 15 nM, respectively.

Consider `COc1ccc(CC(=O)O)cc1-c1ccc(F)c2c1CN(C(=O)OCc1ccccc1)CC2` [Example 157, 8-(5-Carboxymethyl-2-methoxy-phenyl)-5-fluoro-3,4-dihydro-1H-isoquinoline-2-carboxylic acid benzyl ester], for which the 50% inhibitory concentration (IC50) at hCRTH2 receptor amounted to 11.7 nM; in the assay on eosinophils, 153 nM.

For the molecule `CCOc1cc(CC(=O)O)ccc1-c1ccc(F)c2c1CN(C(=O)OCc1ccc(F)cc1)CC2` [Example 404, 8-(4-Carboxymethyl-2-ethoxy-phenyl)-5-fluoro-3,4-dihydro-1H-isoquinoline-2-carboxylic acid 4-fluoro-benzyl ester], the IC50 on hCRTH2 receptor amounted to 2.3 nM; in the assay with eosinophils, 10 nM.

With `COc1ccc(CC(=O)O)cc1-c1ccc(F)c2c1CN(C(=O)CC(C)c1ccccn1)CC2` (racemic) [Example 265], the IC50 was determined as 7.8 nM at hCRTH2 receptor and 98 nM in the assay on eosinophils.

For `COc1ccc(CC(=O)O)cc1-c1ccc(F)c2c1CN(C(=O)CCOc1ccc(F)cc1)CC2` [Example 42, (3-{5-Fluoro-2-[3-(4-fluoro-phenoxy)-propionyl]-1,2,3,4-tetrahydro-isoquinolin-8-yl}-4-methoxy-phenyl)-acetic acid], the values for the half-inhibitory concentration (IC50) on hCRTH2 receptor and with eosinophils were 8.76 nM and 118 nM, respectively.

Take `CCOc1cc(CC(=O)O)ccc1-c1ccc(F)c2c1CN(C(=O)OCC1CCCCC1)CC2` [Example 397, 8-(4-Carboxymethyl-2-ethoxy-phenyl)-5-fluoro-3,4-dihydro-1H-isoquinoline-2-carboxylic acid cyclohexylmethyl ester]: the half-maximal inhibitory concentration (IC50) at hCRTH2 receptor came to 6.8 nM; with eosinophils, 15 nM.
